Like-named read-outs stand apart in the source and are kept apart here.
Target: human MGL from HeLa cells (Homo sapiens (Human), UniProt Q99685)
Test: MGL in vitro activity assay ([glycerol-1,3-3H]-oleoyl glycerol cleavage, activated carbon filter)
Assay type: biochemical
Summary of the method: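 Endogenous MGL in HeLa cells or homogenates was incubated with compound and 300 nM [glycerol-1,3-3H]-oleoyl glycerol for one hour. Reactions were filtered through activated carbon, and tritiated glycerol in the flow-through was counted as a measure of activity.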

human MGL from HeLa cells, sequence (Q99685 whole entry): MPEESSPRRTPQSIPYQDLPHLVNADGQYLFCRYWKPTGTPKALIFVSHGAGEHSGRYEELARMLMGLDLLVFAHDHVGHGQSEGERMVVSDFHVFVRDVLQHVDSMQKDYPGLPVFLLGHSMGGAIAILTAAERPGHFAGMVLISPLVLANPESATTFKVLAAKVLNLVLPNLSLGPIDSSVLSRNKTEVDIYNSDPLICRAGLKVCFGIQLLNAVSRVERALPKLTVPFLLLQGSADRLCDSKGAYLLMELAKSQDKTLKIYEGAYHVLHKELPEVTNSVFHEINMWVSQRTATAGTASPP

IC50 (300 nM [Glycerol-1,3-3H]-oleoyl glycerol, endogenously expressed MGL from HeLa cells, one hour incubation, read-out: MGL IC50) [nM] | SMILES | IC50 [nM]
4.1 | Cc1ccc([C@H]2[C@@H]3CN(C(=O)[C@H]4C[C@]5(COC(=O)N5)C4)C[C@@]32C)cc1OC(F)(F)F (racemic) [Example 114, (rac)-(2s,4*S)-2-((1*R,5*S,6*R)-1-Methyl-6-(4-methyl-3-(trifluoromethoxy)phenyl)-3-azabicyclo[3.1.0]hexane-3-carbonyl)-7-oxa-5-azaspiro[3.4]octan-6-one] | 
 | O=C1N[C@]2(CO1)C[C@H](C(=O)N1CCC3(c4cccc(OC(F)(F)F)c4)CC3C1)C2 (mixture of isomers) [Example 49, (rac)-(2s,4s)-2-(6-(3-(Trifluoromethoxy)phenyl)-3-azabicyclo[4.1.0]heptane-3-carbonyl)-7-oxa-5-azaspiro[3.4]octan-6-one] | 1.6
